Measurements from ChEMBL document CHEMBL3124826, “Discovery of AMG 232, a potent, selective, and orally bioavailable MDM2-p53 inhibitor in clinical development” (J Med Chem, 2014).

Test: Oral bioavailability in cynomolgus monkey
Format: ADME, organism-based, Macaca fascicularis
Settings: in vivo

- bioavailability: 51%
Structure (SMILES): CC(C)[C@@H](CS(=O)(=O)C(C)C)N1C(=O)[C@@](C)(CC(=O)O)C[C@H](c2cccc(Cl)c2)[C@H]1c1ccc(Cl)cc1 [NAVTEMADLIN]
